Test results taken from US20160214974A1 (SYNGENTA PARTICIPATIONS AG, priority 2013, published 2016).
Read-outs that look alike come from different tables or passages of the source.

Legend:
[1] = test system: Myzus persicae (Green Peach Aphid); assay: Activity against Myzus persicae, pea seedlings with roots in test solution (Example B2); assay type: in vivo; details: 144 h, read-out: control of Myzus persicae (mortality)
From the text: (§1) Activity Against Myzus persicae (Green Peach Aphid)
Pea seedlings, infested with an aphid population of mixed ages, were placed with the roots directly in the test solutions at an application rate of 24 ppm. 6 days after introduction, samples were checked for mortality.

[2] = test system: Myzus persicae (Green Peach Aphid); assay: Activity against Myzus persicae, sunflower leaf discs sprayed (Example B1); assay type: in vivo; details: foliar, 144 h, read-out: control of Myzus persicae (mortality)
Method: as §1
Sunflower leaf discs were placed on agar in a 24-well microtiter plate and sprayed with the test solutions at an application rate of 200 ppm. After drying, the leaf discs were infested with an aphid population of mixed ages. After an incubation period of 6 days, samples were checked for mortality.

[3] = test system: Bemisia tabaci (Cotton White Fly); assay: Activity against Bemisia tabaci, cotton leaf discs sprayed (Example B3); assay type: in vivo; details: foliar, 144 h, read-out: control of Bemisia tabaci (mortality)
Method: Activity Against Bemisia tabaci (Cotton White Fly)
Cotton leaf discs were placed on agar in a 24-well microtiter plate and sprayed with test solutions at an application rate of 200 ppm. After drying, the leaf discs were infested with 12 to 18 adults. After an incubation period of 6 days after infestation, samples were checked for mortality.

[4] = test system: Q-biotype strain of Bemisia tabaci (Neonicotinoid resistant); assay: Control of neonicotinoid and pyrethroid resistant tobacco whitefly (Example B4 b); assay type: in vivo; details: 72 h, read-out: control of the Q-biotype (Neonicotinoid resistant) strain of Bemisia tabaci
[5] = sunflower leaf discs sprayed at 200 ppm, mixed age aphids, 6 days
[6] = cotton leaf discs sprayed at 200 ppm, adults, 6 days

Row | Structure (SMILES) | mortality at 24 ppm [1] [%] | mortality at 200 ppm [2] [%] | mortality at 200 ppm [3] [%] | pest or weed control at 200 ppm ([4]; 200 ppm) [%] | mortality at 200 ppm [2, 5] [%] | also measured
1 | CC(C)(C)OC(=O)N1[C@@H]2CC[C@H]1C[C@](C(N)=S)(c1cncc(Br)c1)C2 |  |  |  |  |  | melting point: 228 to 230 °C
2 | NC(=S)[C@@]1(c2cncc(Cl)c2)C[C@H]2C=C[C@@H](C1)N2CC(F)F [E.001, (1R,5S)-3-(5-chloro-3-pyridyl)-8-(2,2-difluoroethyl)-8-azabicyclo[3.2.1]oct-6-ene-3-carbothioamide] | ≥ 80 | ≥ 80 | ≥ 80 | ≥ 80 |  | 
3 | NC(=S)[C@@]1(c2cncc(Cl)c2)C[C@H]2CC[C@@H](C1)N2CC(F)(F)F [E.002, (1S,5R)-3-(5-chloro-3-pyridyl)-8-(2,2,2-trifluoroethyl)-8-azabicyclo[3.2.1]octane-3-carbothioamide] |  | ≥ 80 | ≥ 80 |  |  | pest or weed control at 200 ppm [4]: ≥ 80%
4 | C=C(Cl)CN1[C@@H]2CC[C@H]1C[C@](C(N)=S)(c1cncc(Br)c1)C2 [E.006, (1S,5R)-3-(5-bromo-3-pyridyl)-8-(2-chloroallyl)-8-azabicyclo[3.2.1]octane-3-carbothioamide] | ≥ 80 | ≥ 80 | ≥ 80 |  |  | pest or weed control at 200 ppm [4]: ≥ 80%
5 | NC(=S)[C@@]1(c2cncc(Br)c2)C[C@H]2CC[C@@H](C1)N2CC(F)(F)F [E.007, (1S,5R)-3-(5-bromo-3-pyridyl)-8-(2,2,2-trifluoroethyl)-8-azabicyclo[3.2.1]octane-3-carbothioamide] |  | ≥ 80 | ≥ 80 |  |  | 
6 | NC(=S)[C@@]1(c2cncc(Br)c2)C[C@H]2C=C[C@@H](C1)N2CCCC(F)(F)F [E.008, (1R,5S)-3-(5-bromo-3-pyridyl)-8-(4,4,4-trifluorobutyl)-8-azabicyclo[3.2.1]oct-6-ene-3-carbothioamide] | ≥ 80 | ≥ 80 | ≥ 80 | ≥ 80 |  | 
7 | N#Cc1cncc([C@]2(C(N)=S)C[C@H]3CC[C@@H](C2)N3CC(F)(F)F)c1 [E.009, (1S,5R)-3-(5-cyano-3-pyridyl)-8-(2,2,2-trifluoroethyl)-8-azabicyclo[3.2.1]octane-3-carbothioamide] |  | ≥ 80 | ≥ 80 |  |  | pest or weed control at 200 ppm [4]: ≥ 80%
8 | NC(=S)[C@@]1(c2cncc(Br)c2)C[C@H]2CC[C@@H](C1)N2 [E.010, (1R,5S)-3-(5-bromo-3-pyridyl)-8-azabicyclo[3.2.1]octane-3-carbothioamide] |  |  |  |  | ≥ 80 | mortality at 24 ppm ([1]; pea seedlings, roots in test solution at 24 ppm, 6 days): ≥ 80%; mortality at 200 ppm [3, 6]: ≥ 80%
9 | C=C(Cl)CN1[C@@H]2C=C[C@H]1C[C@](C(N)=S)(c1cncc(C#N)c1)C2 [E.012, (1 S,5R)-8-(2-chloroallyl)-3-(5-cyano-3-pyridyl)-8-azabicyclo[3.2.1]oct-6-ene-3-carbothioamide] | ≥ 80 |  |  | ≥ 80 |  | 
10 | C=C(Cl)CN1[C@@H]2C=C[C@H]1C[C@](C(N)=S)(c1cncc(Br)c1)C2 [E.013, (1R,5S)-3-(5-bromo-3-pyridyl)-8-(2-chloroallyl)-8-azabicyclo[3.2.1]oct-6-ene-3-carbothioamide] |  | ≥ 80 | ≥ 80 | ≥ 80 |  | 
11 | NC(=S)[C@@]1(c2cncc(Br)c2)C[C@H]2C=C[C@@H](C1)N2 [E.015, (1S,5R)-3-(5-bromo-3-pyridyl)-8-azabicyclo[3.2.1]oct-6-ene-3-carbothioamide] |  |  |  |  | ≥ 80 | mortality at 200 ppm [3, 6]: ≥ 80%
12 | NC(=S)[C@@]1(c2cncc(C3CC3)c2)C[C@H]2CC[C@@H](C1)N2CC(F)(F)F [E.023] |  |  |  |  | ≥ 80 | 
13 | NC(=S)[C@@]1(c2cncc(I)c2)C[C@H]2C=C[C@@H](C1)N2 [E.034, (1S,5R)-3-(5-iodo-3-pyridyl)-8-azabicyclo[3.2.1]oct-6-ene-3-carbothioamide] |  |  |  |  | ≥ 80 | mortality at 200 ppm [3, 6]: ≥ 80%
14 | NC(=S)[C@@]1(c2cncc(I)c2)C[C@H]2C=C[C@@H](C1)N2CC(F)F [E.039, (1 S,5R)-8-(2,2-difluoroethyl)-3-(5-iodo-3-pyridyl)-8-azabicyclo[3.2.1]oct-6-ene-3-carbothioamide] | ≥ 80 | ≥ 80 | ≥ 80 | ≥ 80 |  | 
15 | NC(=S)[C@@]1(c2cncc(I)c2)C[C@H]2C=C[C@@H](C1)N2CC(F)(F)F [E.060, (1R,5S)-3-(5-iodo-3-pyridyl)-8-(2,2,2-trifluoroethyl)-8-azabicyclo[3.2.1]oct-6-ene-3-carbothioamide] |  |  |  |  | ≥ 80 | mortality at 200 ppm [3, 6]: ≥ 80%
16 | C=CCN1[C@@H]2C=C[C@H]1C[C@](C(N)=S)(c1cncc(I)c1)C2 [E.063, (1R,5S)-8-allyl-3-(5-iodo-3-pyridyl)-8-azabicyclo[3.2.1]oct-6-ene-3-carbothioamide] | ≥ 80 | ≥ 80 | ≥ 80 | ≥ 80 |  | 
17 | C[Si](C)(C)C#Cc1cncc([C@]2(C(N)=S)C[C@H]3C=C[C@@H](C2)N3CC(F)(F)F)c1 [E.068, (1R,5S)-8-(2,2,2-trifluoroethyl)-3-[5-(2-trimethylsilylethynyl)-3-pyridyl]-8-azabicyclo[3.2.1]oct-6-ene-3-carbothioamide] |  |  |  |  | ≥ 80 | 
18 | C#Cc1cncc([C@]2(C(N)=S)C[C@H]3C=C[C@@H](C2)N3CC(F)(F)F)c1 [E.070, (1R,5S)-3-(5-ethynyl-3-pyridyl)-8-(2,2,2-trifluoroethyl)-8-azabicyclo[3.2.1]oct-6-ene-3-carbothioamide] |  |  |  |  | ≥ 80 | 
19 | NC(=S)[C@@]1(c2cncc(F)c2)C[C@H]2C=C[C@@H](C1)N2CC(F)F [E.071, (1R,5S)-8-(2,2-difluoroethyl)-3-(5-fluoro-3-pyridyl)-8-azabicyclo[3.2.1]oct-6-ene-3-carbothioamide] | ≥ 80 | ≥ 80 | ≥ 80 | ≥ 80 |  | 
20 | NC(=S)[C@@]1(c2cncc(I)c2)C[C@H]2CC[C@@H](C1)N2CC(F)F [E.072, (1 S,5R)-8-(2,2-difluoroethyl)-3-(5-iodo-3-pyridyl)-8-azabicyclo[3.2.1]octane-3-carbothioamide] | ≥ 80 | ≥ 80 | ≥ 80 |  |  | pest or weed control at 200 ppm [4]: ≥ 80%
21 | O=[N+]([O-])NC1=NCCN1Cc1ccc(Cl)nc1 [Imidacloprid, reference compound] |  |  |  |  |  | pest or weed control at 200 ppm [4]: < 80%
22 | N#C/N=C1\SCCN1Cc1ccc(Cl)nc1 [Thiacloprid, reference compound] |  |  |  |  |  | pest or weed control at 200 ppm [4]: < 80%
